Results on two compounds are retold here after article PMC11171218, “N-Benzylated 5-Hydroxybenzothiophene-2-carboxamides as Multi-Targeted Clk/Dyrk Inhibitors and Potential Anticancer Agents” (Cancers, 2024).

The test system of one data set is cleaved caspase-3. The experiment in a line: Western blot, cleaved caspase-3 in T24 cells. In kind it is cell-based, human. The note with it: 10–50 μM, 24 h. The text has this:
(§1) Cell lysates were sequentially suspended in commercial RIPA Buffer (pH 7.4; Cat# RB4475, Bio Basic, Markham, Ontario, Canada) containing Protease Inhibitor Cocktail and PhosSTOP (Merck, Darmstadt, Germany), boiled in sodium dodecyl sulphate (SDS) sample buffer, separated by SDS-polyacrylamide gel electrophoresis (PAGE), and electrophoresed onto a PVDF membrane. Antibodies used in this study were Bcl-2 (Cat#A19693, RRID: AB_2862738) and Bax (Cat# A0207, RRID: AB_2757021) from ABclonal (Boston, MA, USA); cleaved caspase-3 (Cat# 9662, RRID: AB_331439) and GAPDH (Cat# 8884, RRID:AB_11129865) from Cell Signaling Technology (Beverly, MA, USA). The labeled signals were determined using HRP-conjugated secondary antibodies and the Bio-rad ChemiDoc™ MP Imaging System (Berkeley, CA, USA).
(§2) Figure 4 Examining the effect of 12 and 17 on proapoptotic and antiapoptotic pathways. T24 cells were treated with DMSO (0.1%), 12 (30–50 µM), or 17 (30–50 µM) for 24 h. Expression levels of cleaved caspase-3, Bax, Bcl-2, and GAPDH were analyzed by Western blot by corresponding antibodies. The quantitation of the cleaved caspase-3/GAPDH, Bax/GAPDH, and Bcl-2/GAPDH ratio are shown. All data are expressed as the mean ± S.E.M. (n = 3). * p < 0.05, ** p < 0.01, *** p < 0.001 compared with the DMSO group.
For orientation: In western blotting, separated proteins are transferred to a membrane and probed.

The next data set concerns Bcl-2. The data set can be described thus: Western blot, Bcl-2 in T24 cells. In kind it is cell-based, human. Conditions: for Decrease in the antiapoptotic marker Bcl-2: 50 μM; for Expression of antiapoptotic protein Bcl-2: 10–50 μM, 24 h, Western blot.
Source text: as §1, §2

The test system of another data set is T24 cells. The experiment in a line: Apoptosis assay (Annexin V-FITC/PI, flow cytometry). In kind it is cell-based, human. Conditions: 24 h. As to the method: Apoptosis was examined by Annexin V-FITC/PI Apoptosis Kit (Cat# E-CK-A211, Elabscience, Houston, TX, USA) following the manufacturer’s protocol and analyzed by flow cytometry.
Figure 3 Annexin V and PI staining in T24 cells to investigate if compounds 12 and 17 could induce apoptotic death. T24 cells were treated with DMSO (0.1%), 12 (30–50 µM), or 17 (30–50 µM) for 24 h and then stained with Annexin V-FITC antibody and PI. The Annexin V-positive apoptotic cells were monitored using flow cytometry. All data are expressed as the mean ± S.E.M. (n = 3). * p < 0.05, ** p < 0.01 compared with the DMSO group. […] Best reading, upper row: Q1-UL 0.1%, Q1-UR 4.5%, Q1-LL 84.7%, Q1-LR 10.7%. Lower row: Q1-UL 0.2%, Q1-UR 5.1%, Q1-LL 84.9%, Q1-LR 9.8%. They are left out of lines because no compound is present.
A general note: A flow cytometer gives signals particle by particle.

Data set [1] is described as follows: Cell viability in normal cells, HaCaT. In kind it is cell-based. Conditions: human, HaCaT normal human keratinocytes; for viability at 20 µM: mean (n = 3); for IC50: 50% inhibition. As to the method: (§3) All cells were purchased from Bioresource Collection and Research Center (Hsinchu, Taiwan) and cultured in corresponding media supplemented with 10% fetal bovine serum, 1 × Antibiotic-Antimycotic at 37 °C in a humidified incubator with 5% CO2. […] T24 cells were cultured in McCoy’s 5a media. IEC-6 cells were cultured in DMEM media supplemented with 5% fetal bovine serum, 1 × Antibiotic–Antimycotic, and 0.1 unit/mL insulin.
(§4) Cells were incubated with the Cell Counting Kit-8 (CCK-8) reagent (TargetMol, Boston, MA, USA) at 37 °C for 2 h. The cell viability was determined by spectrophotometer at 450 nm.

Data set [2] is described as follows: Cell viability in normal cells, IEC-6. In kind it is cell-based. The note with it: rat, IEC-6 rat intestine epithelial cells (normal cells); for viability at 20 µM: mean (n = 3); for IC50: 50% inhibition. As to the method:
as §3, §4

A word on the viability: it is a per cent measure of how many cells are alive, often set against a control. Low readings indicate more harm to the cells, high ones less harm to the cells. What is called IC50 is the concentration needed to halve the response being measured. A higher IC50 goes with weaker potency in that assay.

On to `COc1cccc(CNC(=O)c2cc3cc(O)ccc3s2)c1` [Compound 12, 5-Hydroxy-N-(3-methoxybenzyl)benzo[b]thiophene-2-carboxamide], for which the “Level of cleaved caspase-3” value with cleaved caspase-3 is “increased the proapoptotic levels of cleaved caspase-3 and Bax”. Also, in the data set on Bcl-2, the “Decrease in the antiapoptotic marker Bcl-2” value was “approximately 0.5 fold” and the “Expression of antiapoptotic protein Bcl-2” value is “decreased the expression of the antiapoptotic protein, Bcl-2”. The “Apoptotic cell population (Annexin V-positive)” value with T24 cells (50 µM) is “increased the apoptotic cell population”. Besides, in data set [1], the viability at 20 µM turned out to be 67.6% and the IC50 was greater than 20 µM. Also, in data set [2], the viability at 20 µM was found to be 96% and the IC50 was greater than 20 µM.
In the case of `O=C(NCc1cc(F)cc(F)c1)c1cc2cc(O)ccc2s1` [Compound 17, N-(3,5-Difluorobenzyl)-5-hydroxybenzo[b]thiophene-2-carboxamide], the “Level of cleaved caspase-3” value in the data set on cleaved caspase-3 is “increased the proapoptotic levels of cleaved caspase-3 and Bax”. For the same compound, in the data set on Bcl-2, the “Decrease in the antiapoptotic marker Bcl-2” value is on record as “approximately 0.5 fold” and the “Expression of antiapoptotic protein Bcl-2” value was “decreased the expression of the antiapoptotic protein, Bcl-2”. Besides, the “Apoptotic cell population (Annexin V-positive)” value in the data set with T24 cells (30 and 50 μM) is “dose-dependently increased the apoptotic cell population”. Also, in data set [1], the viability at 20 µM came to 64.9% and the IC50 was greater than 20 µM. In data set [2], the viability at 20 µM was found to be 76.8% and the IC50 was greater than 20 µM.
